In PMC6980832, “Crystal structures of Triosephosphate Isomerases from Taenia solium and Schistosoma mansoni provide insights for vaccine rationale and drug design against helminth parasites” (PLoS Neglected Tropical Diseases, 2020):

Tests used:
[1] = target: T1, SmTPI (Schistosoma mansoni, UniProt P48501); experiment: X-ray crystal structure of the complex; format: binding; conditions: co-crystallised with 10 mM 2-PGA; active site, closed loop 6; 2.3 Å; bound in all 8 monomers
T1 construct: gene TPI; full length, codon-optimised synthetic gene, E. coli tpi-null strain, modified pET19; extra Gly-Pro-His before Met1; homodimer about 50 kDa

[2] = target: T2, TsTPI (Taenia solium, UniProt Q9GTX8); experiment: X-ray crystal structure of the complex; format: binding; conditions: co-crystallised with 10 mM 2-PGA; active site, closed loop 6; 2.1 Å
T2 construct: full length, codon-optimised synthetic gene, E. coli tpi-null strain, modified pET19; extra Gly-Pro-His before Met1; homodimer
T2 sequence (Q9GTX8 whole entry): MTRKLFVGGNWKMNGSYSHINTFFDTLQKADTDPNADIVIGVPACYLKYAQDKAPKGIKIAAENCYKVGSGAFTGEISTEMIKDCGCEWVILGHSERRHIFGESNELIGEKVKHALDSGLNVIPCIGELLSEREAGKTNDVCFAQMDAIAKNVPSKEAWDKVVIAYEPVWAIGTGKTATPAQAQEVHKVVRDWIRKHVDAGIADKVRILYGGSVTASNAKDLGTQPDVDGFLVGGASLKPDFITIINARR

T1 sequence (P48501 whole entry): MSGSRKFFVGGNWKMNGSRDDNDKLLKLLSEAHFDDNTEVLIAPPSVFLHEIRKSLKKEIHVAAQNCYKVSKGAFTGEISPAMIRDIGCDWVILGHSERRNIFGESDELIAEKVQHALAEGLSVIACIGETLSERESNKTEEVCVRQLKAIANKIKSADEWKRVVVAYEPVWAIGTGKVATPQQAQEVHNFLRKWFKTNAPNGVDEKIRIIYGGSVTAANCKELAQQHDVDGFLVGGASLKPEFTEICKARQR

O=C(O)[C@@H](CO)OP(=O)(O)O [2-PGA, 2-phosphoglyceric acid]
X-ray crystal structure of the complex [1]: We solved the crystal structures of TsTPI and SmTPI in complex with the inhibitor 2-PGA | X-ray crystal structure of the complex [2]: We solved the crystal structures of TsTPI and SmTPI in complex with the inhibitor 2-PGA
